Data on 5 compounds can be found in patent publication US20010014748A1, “HIV INTEGRASE INHIBITORS” (priority 1998, published 2001).

For this assay, the target named is T1, HIV integrase (Human immunodeficiency virus type 1 group M subtype B, UniProt P04585).
T1 construct: strand transfer reaction catalyzed by the recombinant integrase in vitro
Kind of assay: HIV integrase assay: strand transfer catalyzed by recombinant integrase. Format: biochemical. As to conditions: strand transfer activity of recombinant integrase. The method, then:
HIV Integrase Assay: Strand Transfer Catalyzed by Recombinant Integrase
Assays for the strand transfer activity of integrase were conducted according to Wolfe, A. L. et al., J. Virol. 70, 1424 (1996, hereby incorporated by reference for these purposes. Data for representative compounds of the present invention follow: […]

For the compound `CC(=O)OC1C(O)C2=C(CCC3C2(C)CC(OC(=O)CCCCCCCCCCCCCCCO)C(OS(=O)(=O)O)C3(C)C)C2=CCC(C(C)CCC3(C(C)(C)O)CO3)C21C` (centres unmarked) [Compound A1], the IC50 was 14 µM.
Regarding `C=C(CCC(C)C1CCC2C3=C(C(O)C(OC(C)=O)C21C)C1(C)CC(O)C(OS(=O)(=O)O)C(C)(C)C1CC3)C(C)C` (centres unmarked) [Compound A3], the IC50 stood at 15 µM.
As to `C=C(CCC(C)C1CC=C2C3=C(C(O)C(OC(C)=O)C21C)C1(C)CC(O)C(OC(=O)CCC(=O)O)C(C)(C)C1CC3)C(C)C` (centres unmarked) [Compound J], the IC50 was determined as 16 µM.
In the case of `C=C(CCC(C)C1CC=C2C3=C(C(O)C(OC(C)=O)C21C)C1(C)CC(OC(=O)CCC(=O)O)C(O)C(C)(C)C1CC3)C(C)C` (centres unmarked) [Compound K] it was 68 µM; in that of `C=C(CC[C@@H](C)[C@H]1CC=C2C3=C([C@@H](O)[C@H](OC(C)=O)C21C)C1(C)C[C@@H](OC(=O)CN)[C@H](OC(=O)CN)C(C)(C)[C@@H]1CC3)C(C)C` (some centres unmarked) [Compound X], 5 µM.
